Where two headings read alike, the source gives them in different places.
Experiments:
CD8 human cells [1] = conditions: HLA A*0201; (pN) = peptide number in the source; cited from earlier work
CD8 human cells [2] = conditions: cited from earlier work; for Stimulatory grade, B: Khan et al. 2002 (ELISPOT): HLA A*0201
[3] = molecular target: T1, HLA A*0201 molecule on T2 cells (Homo sapiens, UniProt P04439, D140Y/D185E/D98H/E176V/E277Q/G131W/G231S/I119V/I121R/I166T/I218V/L300P/L318F/N151K/N90K/P208A/P217A/Q86G/Q94H/R138H/R169H/T345S); assay type: binding
T1 construct: host or cells: T2 cells
Text: T2 cells, ATCC accession no. CRL-1992, are defective for endogenous class I presentation, but peptide binding to the MHC molecule stabilizes its expression on the cell surface. The stabilized MHC molecule can be detected by flow cytometry with a monoclonal antibody to the HLA A*0201 molecule. T2 cells express HLA A*0201 but not the HLA DR and are class II MHC antigen negative. […] A293 cells are human embryonic kidney cells. A293-IE1 is a stably transfected human kidney cell line endogenously expressing the CMV-IE1 protein. All cells used in experiments were mycoplasma-free and were maintained in RPMI-1640 supplemented with 10% FBS, penicillin-streptomycin and 2 mM glutamine.
T2 cells are defective for endogenous class I presentation but the presence of peptide binding to the MHC molecule will stabilize its expression on the cell surface. The stabilized MHC molecule can be detected by flow cytometry using a monoclonal antibody to the HLA A-A*0201 molecule. Peptide sequences were selected using two algorithms for HLA peptide predicted motifs publicly available on the internet ([…] (Rammensee et al., Immunogenetics 50:213-219, 1999) and BIMAS).
The peptides were assayed on T2 cells for their ability to bind and stabilize the A2 molecules on the cell surface according to methods described in Gricks et al., Cancer Res. 61:5145-5152, 2001, with modifications. […] The level of stabilized HLA-A2 on the surface of the T2 cells was determined according to known methods using monoclonal antibody BB7.2, which specifically recognizes HLA A*0201 as described in BenMohamed et al., Hum. Immunol. 61:764-779, 2000 and Parham et al., Hum. Immunol. 3:277-299, 1981 and a FITC-labeled goat anti-mouse F(ab′)2. Fluorescence was detected with a FACSCalibur™ flowcytometer. Numbers in the peak channel were compared to control T2 cells that contained HLA mismatch B7 peptide or no peptide.
The results were expressed as fold increased fluorescence compared to the mean of no peptide and HLA mismatch B7 peptide.

CD8 human cells [4] = test: Summary of stimulatory CMV IE1 HLA A*0201 restricted peptides, present report (Table I, A); assay type: cell-based
Text: These mutations may contribute to the low incidence of response to individual IE1 peptides. The locations of putative mutations are underlined. See Frankenberg et al., Virology 295: 208-216, 2002. Typically, the mutations that would most dramatically affect the binding of an epitope into the MHC molecule are situated at the anchor site, amino acid positions p2 and p9 of a peptide. See Falk et al., Semin. Immunol. 15:81-94, 1993; Zaia et al., J. Virol. 75:2472-2474, 2001. The only peptide showing a p2-p9 unstable mutation site is IE1-315, first described by Retiere (J. Virol. 74:3948-3952, 2000) using a TNF release assay. […] See Khan et al., J. Infect. Dis. 185:1025-1034, 2002. However IE1-316, which contains possible mutations at site p1 and p8, was more frequently recognized in this same study (6 out of 18) in an IFN-γ elispot assay. IE1-297, possibly mutated at p1 and p5, is a strong candidate for CMV immune recognition as well, since 3 of 4 patient PBLs responded in an ICC (intracellular cytokine) assay. Therefore, despite the presence of point mutation sites in IE1 epitopes, provided the anchor sites are intact, IE1-297 and IE1-316 peptides are presented by the MHC molecule after immunization with or exposure to CMV in HLA A*0201 subjects. In summary, IE1-297, IE1-316 and IE1-256 are peptides that stimulate CD8 human cells (Table I).

CD8 cells = test: Intracellular cytokine (ICC) IFN-γ assay, fresh blood from CMV seropositive stem cell transplantation subjects; assay type: cell-based, human
Method: Having identified IE1-297 peptide as an important epitope in the process of CTL response to CMV-IE1 immunization in A2 transgenic mice, this peptide was tested to determine if it was recognized by CD8 cells from CMV seropositive human subjects. Fresh whole blood samples were collected from four individuals susceptible to CMV reactivation 40, 120, 150 and 180 days after stem cell transplantation. Frozen white blood cells from the human subjects were stimulated for 6 hours with 100 μM IE1-297, pp65(p495) or HIV peptide (negative control) and PHA (positive control). The cells then were stained to detect CD8 and IFN-γ production. Four patient samples were analyzed by cytokine flow cytometry.

[5] = system: CD8+ peripheral blood lymphocytes; test: ICC/IFN-γ assay, cryopreserved PBL of HLA-A2 HCT subjects; conditions: CMV reactivation
Method: Five CMV seropositive HLA A2 human subjects showing CMV reactivation within 100 days post hematopoietic cell transplantation (HCT) and 6 CMV seropositive subjects without CMV reactivation were followed at days 40, 90, 120, 150, 180 and 360 post HCT. The intracellular IFN-γ response (ICC) to CMVpp65p495-503, CMV-IE1-256, IE1-297 and IE1-316 and the CD8 MHC/peptide binding (tetramer assay) using CMVpp65p495-503, IE1-297 and IE1-316 were analyzed in two groups.
Eleven HLA A*0201 HCT recipients, at risk for CMV infection because of donor and/or recipient CMV-seropositivity, were enrolled in this study. The subjects included related sibling donors and recipients of allogeneic HCT for hematologic malignancies as well as HCT recipients of matched unrelated donor (MUD).
Peripheral blood mononuclear cells (PBMC) from heparin-treated whole blood were isolated using Histopaque™-1077 density gradients, washed with 1× phosphate-buffered saline (PBS) and cryopreserved in aliquots of 3×10^6 to 5×10^6 cells/mL in 90% fetal bovine serum (FBS) and 10% dimethylsulfoxide. The plasma was collected by centrifugation, filtered through 0.45 μm Acrodisc™ filters and stored at −20° C. until DNA extraction.
Donor samples (except for MUD subjects) were drawn before administration of granulocyte-colony stimulating factor (G-CSF) and later at the time of harvest. Recipient blood samples were collected at day 40, 90, 120, 150, 180 and 360 post-transplant for ICC and tetramer binding assays, and the CMV reactivation was monitored starting at day 21 post-HCT and twice weekly until day 100 using a shell vial assay and quantitative PCR.
To evaluate the immune reactivity to CMV in HLA-A2 subjects, cryopreserved peripheral blood lymphocytes (PBL) from the subjects were stimulated with peptides derived from CMV-pp65 and CMV-IE1 proteins. […] The positive stimulation control contained phytohemagglutinin (PHA) and the negative control contained HIV peptide.
After 1 hour incubation at 37° C. in 5% CO2, 1 μL (stock 5 mg/mL) of Brefeldin A, a cytokine secretion inhibitor, was added to the cells and further incubated overnight. Samples were then washed with 1×PBS and 0.5% bovine serum albumin and stained for 20 minutes in the dark with 5 μL of anti-CD8 antibody conjugated to streptavidin-phycoerythrin (CD8-PE). The cells were fixed and permeabilized for 20 minutes using the Cytofix/Cytoperm Kit™ (Pharmingen™) and stained for 30 minutes at 4° C. in the dark with 1 μL of anti-IFN-γ conjugated with streptavidin-allophycocyanin (APC).
After purification, the peptides were dissolved in 10% DMSO/water to a concentration of 5 mM and used at a final concentration of 25 μM for T cell stimulation. […] The latter two peptides served as a positive and negative control, respectively.
For FACS, patient cell samples were washed twice with 1× Cytofix™ Wash Solution for analysis by fluorescence-activated cell sorting using a FACScalibur™ instrument. The lymphocytes were gated based on forward and side scatter. A minimum of 50,000 events were analyzed per sample. The reported data are the values obtained after subtraction of background levels acquired with HIV peptide stimulation (which ranged from 0.0% to 0.5%).

[6] = T2 cells, 100 μM peptide, 18 hours
[7] = fluorescence compared to the mean of no peptide and HLA mismatch B7 peptide, 100 μM peptide

Substance: ILGADPLRV (listed as Human cytomegalovirus) [IE1-355]
- Stimulatory grade, C: Frankenberg et al. 2002 (IVS4) (CD8 human cells [1]): (p10) poor
- Stimulatory grade, B: Khan et al. 2002 (ELISPOT) (CD8 human cells [2]): neg

Substance: LLSEFCRV (LLSEFCRVL; listed as Human cytomegalovirus) [IE1-304]
- Stimulatory grade, C: Frankenberg et al. 2002 (IVS4) (CD8 human cells [1]): (p4) neg
- peak channel [3, 6]: 433
- Fold Increase [3, 7]: 1.8 fold
- Stimulatory grade, A: Present Report (CD8 human cells [4]): neg
- Stimulatory grade, B: Khan et al. 2002 (ELISPOT) (CD8 human cells [2]): neg

Substance: RPHERNGFTVL (listed as Human cytomegalovirus) [CMVB7-265]
- peak channel [3, 6]: 261
- Fold Increase [3, 7]: 1 fold

Substance: SLLSEFCRV (listed as Human cytomegalovirus) [IE1-303]
- Stimulatory grade, C: Frankenberg et al. 2002 (IVS4) (CD8 human cells [1]): (p9) poor
- Stimulatory grade, B: Khan et al. 2002 (ELISPOT) (CD8 human cells [2]): neg

Substance: TPRVTGGGAM [CMVB7-417]
- Fold Increase [3]: 1 fold
- peak channel [3]: 232

Substance: VLAELVKQI (listed as Human cytomegalovirus) [IE1-81]
- Stimulatory grade, C: Frankenberg et al. 2002 (IVS4) (CD8 human cells [1]): (p2) neg
- peak channel [3, 6]: 495
- Fold Increase [3, 7]: 2 fold
- Stimulatory grade, A: Present Report (CD8 human cells [4]): neg
- Stimulatory grade, B: Khan et al. 2002 (ELISPOT) (CD8 human cells [2]): neg

Substance: YVLEETSVM (listed as Human cytomegalovirus) [IE1-315]
- subjects recognizing the peptide in IFN-γ elispot (CD8 human cells [2]; out of 18 subjects, Khan et al.): one subject out of 18

Substance: phytohemagglutinin [PHA]
- % CD8+/IFN-γ (CD8 cells; Patient No. 70, 150 days post-transplant): <33.15%
- % CD8+/IFN-γ (CD8 cells; Patient No. 70, 180 days post-transplant): 19.2%
- % CD8+/IFN-γ (CD8 cells; Patient No. 93, 120 days post-transplant): 37.6%
- % CD8+/IFN-γ (CD8 cells; Patient No. 100, 40 days post-transplant): 2.09%
- % CD8+/IFN-γ+ after peptide stimulation ([5]; Subj. 54, Day 40 post-HCT): 0.54%
- % CD8+/IFN-γ+ after peptide stimulation ([5]; Subj. 54, Day 90 post-HCT): 5.34%
- % CD8+/IFN-γ+ after peptide stimulation ([5]; Subj. 54, Day 150 post-HCT): 1.78%
- % CD8+/IFN-γ+ after peptide stimulation ([5]; Subj. 54, Day 180 post-HCT): 4.27%
- % CD8+/IFN-γ+ after peptide stimulation ([5]; Subj. 54, Day 360 post-HCT): 6.91%
- % CD8+/IFN-γ+ after peptide stimulation ([5]; Subj. 70(D) donor, postG): 0.63%
- % CD8+/IFN-γ+ after peptide stimulation ([5]; Subj. 70(D) donor, preG): 0.24%
- % CD8+/IFN-γ+ after peptide stimulation ([5]; Subj. 70, Day 40 post-HCT): 0.64%
- % CD8+/IFN-γ+ after peptide stimulation ([5]; Subj. 70, Day 90 post-HCT): 5.09%
- % CD8+/IFN-γ+ after peptide stimulation ([5]; Subj. 70, Day 120 post-HCT): 4.01%
- % CD8+/IFN-γ+ after peptide stimulation ([5]; Subj. 70, Day 150 post-HCT): 2.44%
- % CD8+/IFN-γ+ after peptide stimulation ([5]; Subj. 70, Day 180 post-HCT): 2.88%
- % CD8+/IFN-γ+ after peptide stimulation ([5]; Subj. 70, Day 360 post-HCT): 3.5%
- % CD8+/IFN-γ+ after peptide stimulation ([5]; Subj. 93(D) donor, postG): 6.08%
- % CD8+/IFN-γ+ after peptide stimulation ([5]; Subj. 93(D) donor, preG): 2.08%
- % CD8+/IFN-γ+ after peptide stimulation ([5]; Subj. 93, Day 40 post-HCT): 6.32%
- % CD8+/IFN-γ+ after peptide stimulation ([5]; Subj. 93, Day 120 post-HCT): 12.46%
- % CD8+/IFN-γ+ after peptide stimulation ([5]; Subj. 93, Day 150 post-HCT): 21.01%
- % CD8+/IFN-γ+ after peptide stimulation ([5]; Subj. 93, Day 360 post-HCT): 16.5%
- % CD8+/IFN-γ+ after peptide stimulation ([5]; Subj. 94, Day 40 post-HCT): 23.17%
- % CD8+/IFN-γ+ after peptide stimulation ([5]; Subj. 94, Day 90 post-HCT): 21.58%
- % CD8+/IFN-γ+ after peptide stimulation ([5]; Subj. 94, Day 120 post-HCT): 14.53%
- % CD8+/IFN-γ+ after peptide stimulation ([5]; Subj. 94, Day 150 post-HCT): 15.03%
- % CD8+/IFN-γ+ after peptide stimulation ([5]; Subj. 94, Day 180 post-HCT): 29.1%
- % CD8+/IFN-γ+ after peptide stimulation ([5]; Subj. 94, Day 360 post-HCT): 20.21%
- % CD8+/IFN-γ+ after peptide stimulation ([5]; Subj. 105(D) donor, postG): 5.3%
- % CD8+/IFN-γ+ after peptide stimulation ([5]; Subj. 105, Day 40 post-HCT): 11.56%
- % CD8+/IFN-γ+ after peptide stimulation ([5]; Subj. 105, Day 90 post-HCT): 40.76%
- % CD8+/IFN-γ+ after peptide stimulation ([5]; Subj. 105, Day 120 post-HCT): 29.38%
- % CD8+/IFN-γ+ after peptide stimulation ([5]; Subj. 105, Day 150 post-HCT): 26.14%
